From PubChem BioAssay (NCI)
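Values below derive from 48-hour exposures of cells grown in 96-well plates, with endpoints linearly interpolated between the two concentrations bracketing the appropriate inhibition level. TGI is the concentration that stops growth completely.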

What was measured:
Test in all cases: DTP human tumour cell line panel, 48 h
SK-OV-3 ovarian = system: SK-OV-3 ovarian
A549 NSCLC = system: A549 NSCLC
M19-MEL melanoma = system: M19-MEL melanoma
LXFL 529 NSCLC = system: LXFL 529 NSCLC
NCI-H226 lung = system: NCI-H226 lung
TK-10 renal = system: TK-10 renal
SR leukemia = system: SR leukemia
OVCAR-4 ovarian = system: OVCAR-4 ovarian
UACC-257 melanoma = system: UACC-257 melanoma
SF-295 CNS = system: SF-295 CNS
EKVX NSCLC = system: EKVX NSCLC
M14 melanoma = system: M14 melanoma
A498 renal = system: A498 renal
HOP-92 NSCLC = system: HOP-92 NSCLC
SW-620 colon = system: SW-620 colon
DLD-1 colon = system: DLD-1 colon
SF-268 CNS = system: SF-268 CNS
CCRF-CEM leukemia = system: CCRF-CEM leukemia
COLO 205 colon = system: COLO 205 colon
SNB-19 CNS = system: SNB-19 CNS
SNB-78 CNS = system: SNB-78 CNS
RPMI-8226 leukemia = system: RPMI-8226 leukemia
SK-MEL-5 melanoma = system: SK-MEL-5 melanoma
DMS 114 small cell lung = system: DMS 114 small cell lung
UACC-62 melanoma = system: UACC-62 melanoma
XF 498 CNS = system: XF 498 CNS
SN12C renal = system: SN12C renal
UO-31 renal = system: UO-31 renal
DMS 273 small cell lung = system: DMS 273 small cell lung
NCI-H23 lung = system: NCI-H23 lung
SNB-75 CNS = system: SNB-75 CNS
MALME-3M melanoma = system: MALME-3M melanoma
SF-539 CNS = system: SF-539 CNS
IGROV1 ovarian = system: IGROV1 ovarian
OVCAR-8 ovarian = system: OVCAR-8 ovarian
SK-MEL-28 melanoma = system: SK-MEL-28 melanoma
KM12 colon = system: KM12 colon
HCC-2998 colon = system: HCC-2998 colon
OVCAR-3 ovarian = system: OVCAR-3 ovarian
786-0 renal = system: 786-0 renal
HT29 colon = system: HT29 colon
HCT-116 colon = system: HCT-116 colon
NCI-H522 lung = system: NCI-H522 lung
K-562 leukemia = system: K-562 leukemia
HOP-62 NSCLC = system: HOP-62 NSCLC
CAKI-1 renal = system: CAKI-1 renal
HL-60(TB) leukemia = system: HL-60(TB) leukemia
MOLT-4 leukemia = system: MOLT-4 leukemia
SK-MEL-2 melanoma = system: SK-MEL-2 melanoma

Measured: TGI

N#CCCN(c1ccc(C=Nc2ccccc2)cc1)S(=O)(=O)c1ccccc1
> 100 µM: all assays above
